Experimental data from patent US20120165319A1, “INHIBITORS OF INTERLEUKIN-1 BETA CONVERTING ENZYME” (VERTEX PHARMACEUTICALS INCORPORATED, priority 1995, published 2012).
Like-named read-outs stand apart in the source and are kept apart here.

Key:
ICE = target: T1, ICE (Homo sapiens, UniProt P29466); assay: Enzyme assay with UV-visible substrate (visible ICE assay, Succinyl-Tyr-Val-Ala-Asp-pNitroanilide); assay type: biochemical
T1 sequence (P29466 120-297 limits assumed): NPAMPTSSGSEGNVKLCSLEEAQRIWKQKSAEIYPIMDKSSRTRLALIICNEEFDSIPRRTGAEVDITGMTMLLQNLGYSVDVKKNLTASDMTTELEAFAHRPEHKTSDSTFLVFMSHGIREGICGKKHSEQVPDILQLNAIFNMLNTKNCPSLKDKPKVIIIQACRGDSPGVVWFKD
T1 sequence (P29466 317-404 limits assumed): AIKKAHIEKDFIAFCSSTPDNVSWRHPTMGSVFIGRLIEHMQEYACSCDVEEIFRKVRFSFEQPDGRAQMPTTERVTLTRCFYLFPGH
In short: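 ICE preincubated with inhibitor in DMSO for 15 min at room temperature, then Suc-Tyr-Val-Ala-Asp-pNA added. pNA release read at 405-603 nm for 20 min at 37 °C, rate from linear fit in mOD/min. Ki and inhibition mode from fits of rates at varying inhibitor concentrations to standard kinetic equations.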

[1] = system: IL-1β, human peripheral blood mononuclear cells (PBMC); assay: PBMC cell assay: IL-1β assay with human PBMC or enriched adherent mononuclear cells, LPS-stimulated; assay type: cell-based
In short: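 Buffy-coat human PBMC at 6×10^6 cells/ml, or adherent monocytes enriched by 1 h adherence (2.5−3.0×10^5 cells/well), are given 5–6 compound dilutions bracketing the ICE Ki (final DMSO 0.1%) plus LPS at a final 5 ng/ml. They are incubated 16–18 hr at 37 °C, 5% CO2, and supernatant mature IL-1β is measured by ELISA, with duplicate cultures and duplicate ELISAs.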

[2] = Pharmacokinetic studies in the mouse (i.v. clearance, plasma levels); assay type: in vivo; settings: CD-1, plasma, iv, mouse, 25 mg/kg
Method: Pharmacokinetic Studies in the Mouse
Sample Preparation and Dosing
Compounds were dissolved in sterile TRIS solution (0.02M or 0.05M) at a concentration of 2.5 mg/ml. Where necessary to ensure a complete solution, the sample was first dissolved in a minimum of dimethylacetamide (maximum of 5% of total solution volume) then diluted with the TRIS solution.
The drug solution was administered to CD-1 mice (Charles River Laboratories—26-31 g) via the tail vein at a dose volume of 10 ml/kg giving a drug dose of 25 mg/kg.
Mice were dosed in groups of 5 for each timepoint (generally from 2 minutes to 2 hours) then at the appropriate time the animals were anaesthetised with halothane and the blood collected into individual heparinized tubes by jugular severance. The blood samples were cooled to 0° C. then the plasma separated and stored at −20° C. until assayed.
Drug concentration in the plasma samples were determined by HPLC analysis with UV or MS (ESP) detection. Reverse phase chromatography was employed using a variety of bonded phases from C1 to C18 with eluents composed of aqueous buffer/acetonitrile mixtures run under isocratic conditions.
Quantitation was by external standard methods with calibration curves constructed by spiking plasma with drug solutions to give concentrations in the range of 0.5 to 50 μg/ml.
Prior to analysis the plasma samples were deproteinated by the addition of acetonitrile, methanol, trichloroacetic acid or perchloric acid followed by centrifugation at 10,000 g for 10 minutes. Sample volumes of 20 μl to 50 μl were injected for analysis.
The drug was dissolved in sterile 0.02M Tris to give a 2.5 mg/ml solution which was administered to […] of 5 male CD-1 mice via the tail vein at a dose of 25 mg/kg. At each of the following timepoints: 2, 5, 10, 15, 20, 30, 45, 60, 90 and 120 minutes a group of animals was anaesthetised and the blood collected into heparinized tubes. After separation the plasma was stored at −20° C. until assayed.
Aliquots of plasma (150 μl) were treated with 5% perchloric acid (5 μl) then mixed by vortexing and allowed to stand for 90 minutes prior to centrifugation. The resulting supernatant was separated and 20 μl was injected for HPLC analysis.
Aliquots of plasma (100 μl) were diluted with acetonitrile (100 μl) then mixed by vortexing for 20 seconds before centrifugation for 10 minutes. The resulting supernatant was separated and 20 μl was injected for HPLC analysis.

[3] = In vivo rat clearance assay; settings: plasma, iv
Method: In Vivo Rat Clearance Assay
Cannulations of the jugular and carotid vessels of rats under anesthesia were performed one day prior to the pharmacokinetic study. M. J. Free, R. A. Jaffee; ‘Cannulation techniques for the collection blood and other bodily fluids’; in: Animal Models; p. 480-495; N. J. Alexander, Ed.; Academic Press; (1978). Drug (10 mg/mL) was administered via the jugular vein in a vehicle usually consisting of: propylene glycol/saline, containing 100 mM sodium bicarbonate in a 1:1 ratio. Animals were dosed with 10-20 mg drug/kg and blood samples were drawn at 0, 2, 5, 7, 10, 15, 20, 30, 60, and 90 minutes from an indwelling carotid catheter. The blood was centrifuged to plasma and stored at −20° C. until analysis. Pharmacokinetic analysis of data was performed by non-linear regression using standard software such as RStrip (MicroMath Software, UT) and/or Pcnonlin (SCI Software, NC) to obtain clearance values.
Rat plasma was extracted with an equal volume of acetonitrile (containing 0.1% TFA). Samples were then centrifuged at approximately 1,000×g and the supernatant analyzed by gradient HPLC. A typical assay procedure is described below.
A standard curve was run at 20, 10, 5, 2 and 1 μg/mL concentrations.

[4] = system: IL-1β production, LPS-challenged mice; assay: In vivo acute assay for efficacy as anti-inflammatory agent: LPS-induced IL-1β production in mice; set-up: species or system mouse; settings: for inhibition at 50 mg/kg: Mus musculus, po, LPS challenged mice, compound PO, read-out: percent inhibition of IL-1β production
In short: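 CD1 mice (n=6) were challenged with LPS 20 mg/kg IP and given compound IP in olive oil:DMSO:ethanol (90:5:5) 1 h after LPS, or at the time of challenge for some analogs. Blood was taken 7 h after LPS and serum IL-1β was measured by ELISA. Oral gavage at 50 mg/kg was also tested.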

IL-1β, human whole blood = assay: Whole blood assay for IL-1β production; assay type: cell-based; settings: * = values obtained upon reassay, read-out: Whole human blood IC50
In short: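 Human whole blood collected on Na2EDTA was treated with serially diluted compound in saline and then stimulated with LPS at 5.0 ng/ml final, for 16-18 h at 30 °C, in duplicate or triplicate. Plasma IL-1β was measured by ELISA at 1:200 dilution.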

[5] = Homo sapiens, PBMC, * = values obtained upon reassay
[6] = 0 h, administered 0 h relative to time of LPS challenge
[7] = 1 h, administered +1 h relative to time of LPS challenge
[8] = 2 h, administered −2 h relative to time of LPS challenge
[9] = % inhibition of IL-β production, LPS-challenged mice, 50 mg/kg (Table 3)
[10] = * = values obtained upon reassay

| SMILES | Ki (ICE; Table 5) [µM] | clearance [2] [L/h/kg] | IC50 [1, 5] [µM] | clearance ([3]; 10-20 mg/kg) [L/h/kg] | further results |
| --- | --- | --- | --- | --- | --- |
| O=C(O)CC(NC(=O)Cn1c(Cc2ccccc2)ccc(NC(=O)CCc2ccccc2)c1=O)C(=O)COC(=O)c1c(Cl)cccc1Cl (centres unmarked) [Compound 57b, N-2-(6-Benzyl-1,2-dihydro-2-oxo-3-(3-phenylpropionyl)amino-1-pyridyl)acetyl-3-amino-5-(2,6-dichloro-benzoyloxy)-4-oxo-pentanoic acid] | – | – | – | – | melting point: 116 to 120 °C (dec.) |
| CS(=O)(=O)N[C@H]1CCC(=O)N2CCC[C@@H](C(=O)N[C@@H](CC(=O)O)C(=O)c3nc4cc(Cl)cc(Cl)c4o3)N2C1=O [Compound 223b, [3S(1S,9S)]-4-(5,7-Dichlorobenzoxazol-2-yl)-3-(6,10-dioxo-9-methylsulphonylamino-1,2,3,4,7,8,9,10-octahydro-6H-pyridazino[1,2-a][1,2]diazepine-1-carboxamido)-4-oxobutanoic acid] | 0.099 | > 6 | 5 | – | – |
| COc1ccccc1NC(=O)NN1CCC(=O)N2CCC[C@@H](C(=O)N[C@H](C=O)CC(=O)O)N2C1=O [Compound 265d, [3S(4S)]3-[6,10-Dioxo-7-(2-methoxyphenylureido)-1,2,3,4,7,8,9,10-octahydro-6H-pyridazino[1,2-a][1,2,4]-triazepine-4-carboxamido]-4-oxobutanoic acid] | – | – | – | – | Ki (ICE; Table 17): 0.5 µM; IC50 ([1]; Homo sapiens, PBMC, Table 17): 1.5 µM; clearance ([3]; Table 17): 2.1 L/h/kg |
| CC(=O)Nc1ccc(C(=O)N[C@H]2CCC(=O)N3CCC[C@@H](C(=O)N[C@H](C=O)CC(=O)O)N3C2=O)cc1 [Compound 418] | 0.0022 | 0.78 | – | 0.354 | inhibition at 50 mg/kg [4, 6]: 52%; inhibition at 50 mg/kg [4, 7]: 64%; inhibition at 50 mg/kg [4, 8]: 25% |
| O=C[C@H](CC(=O)O)NC(=O)[C@@H]1CCCN2C(=O)CC[C@H](NS(=O)(=O)c3ccccc3)C(=O)N12 [Compound 427] | 0.18 | – | 4.5 | 2.16 | – |
| O=C[C@H](CC(=O)O)NC(=O)[C@@H]1CCCN2C(=O)CC[C@H](NC(=O)c3ccc4ncccc4c3)C(=O)N12 [Compound 438] | 0.028 | – | 1 | 1.32 | IP % Inhibition [4, 9]: 40%; POS Inhibition ([4]; % inhibition of IL-β production, LPS-challenged mice, PO, 50 mg/kg (Table 3)): 13% |
| COc1ccc(C(=O)N[C@H]2CCC(=O)N3CCC[C@@H](C(=O)N[C@H](C=O)CC(=O)O)N3C2=O)cc1 [Compound 452] | 0.0045 | – | 0.6 | 1.64 | IC50 [1, 10]: 0.8 µM; inhibition at 50 mg/kg [4, 6]: 89%; inhibition at 50 mg/kg [4, 7]: 70%; inhibition at 50 mg/kg [4, 8]: 28% |
| Nc1ccc(C(=O)N[C@H]2CCC(=O)N3CCC[C@@H](C(=O)N[C@H](C=O)CC(=O)O)N3C2=O)cc1Cl [Compound 481] | 0.0012 | – | – | 2.04 | IC50 (IL-1β, human whole blood): 0.5 µM; IC50 (IL-1β, human whole blood; Homo sapiens): 0.6 µM; inhibition at 50 mg/kg [4, 6]: 0%; inhibition at 50 mg/kg [4, 8]: 27% |
| O=C(O)C[C@H](NC(=O)[C@@H]1CCCN2C(=O)CC[C@H](NC(=O)c3ccccc3)C(=O)N12)C(=O)CSc1nccs1 [Compound 510a, [3S(1S,9S)]3-(9-Benzoylamino-6,10-dioxo-1,2,3,4,7,8,9,10-octahydro-6H-pyridazino[1,2-a][1,2]diazepine-1-carboxamido)-5-(2-mercaptothiazole)-4-oxopentanoic acid] | – | – | – | – | Ki (ICE; Table 17): 0.065 µM; IC50 ([1]; Homo sapiens, PBMC, Table 17): 0.2 µM; clearance ([2]; Table 17): 16 L/h/kg |
| O=C[C@H](CC(=O)O)NC(=O)[C@@H]1CCCN2C(=O)CC[C@H](NC(=O)C(=O)c3ccccc3)C(=O)N12 [Compound 2002, [3S(1S,9S)]3-(9-Benzoylformylamino-6,10-dioxo-1,2,3,4,7,8,9,10-octahydro-6H-pyridazino[1,2-a][1,2]-diazepine-1-carboxamido)-4-oxobutanoic acid] | 0.004 | – | 0.81 | 1.92 | IC50 [1, 10]: 0.86 µM; IP % Inhibition [4, 9]: 78%; inhibition at 50 mg/kg [4, 6]: 87%; inhibition at 50 mg/kg [4, 8]: 5% |

Second part, led by results:

| Ki (ICE; Table 5) [µM] | clearance [2] [L/h/kg] | SMILES | IC50 [1, 5] [µM] | clearance ([3]; 10-20 mg/kg) [L/h/kg] | further results |
| --- | --- | --- | --- | --- | --- |
| 0.045 | 5.82 | O=C[C@H](CC(=O)O)NC(=O)CN1C(=O)[C@@H](NC(=O)c2ccccc2)CN(C(=O)Cc2ccccc2)c2ccccc21 [Compound 605b, (3S)-3-[(3S)-2-Oxo-3-benzoylamino-5-phenylacetyl-2,3,4,5-tetrahydro-1H-1,5-benzodiazepin-1-acetylamino]-4-oxo-butyric acid] | 10 | – | – |
| 0.615 | 2.22 | O=C[C@H](CC(=O)O)NC(=O)CN1C(=O)[C@@H](NC(=O)c2ccccc2)CN(C(=O)c2ccccc2)c2ccccc21 [Compound 605c, (3S)-3-[(3S)-2-Oxo-3-benzoylamino-5-benzoyl-2,3,4,5-tetrahydro-1H-1,5-benzodiazepin-1-acetylamino]-4-oxo-butyric acid] | 4.5 | – | – |
| 0.095 | 1.98 | CC(=O)N1C[C@H](NC(=O)c2ccccc2)C(=O)N(CC(=O)N[C@H](C=O)CC(=O)O)c2ccccc21 [Compound 605d, (3S)-3-[(3S)-2-Oxo-3-benzoylamino-5-acetyl-2,3,4,5-tetrahydro-1H-1,5-benzodiazepin-1-acetylamino]-4-oxo-butyric acid] | 5.1 | – | – |
| 0.11 | 4.26 | COC(=O)N1C[C@H](NC(=O)c2ccccc2)C(=O)N(CC(=O)N[C@H](C=O)CC(=O)O)c2ccccc21 [Compound 605j, (3S)-3-[(3S)-2-Oxo-3-benzoylamino-5-methoxycarbonyl-2,3,4,5-tetrahydro-1H-1,5-benzodiazepin-1-acetylamino]-4-oxo-butyric acid] | 8.75 | – | – |
